Assay: xn = mol fraction of the nth substance listed

COCCOCCOCCOC + ClC(Cl)(Cl)Cl
298.15 K, 101 kPa
Settings | viscosity [mPa·s]
x1 = 0.0041 | 0.912
x1 = 0.0202 | 0.952
x1 = 0.0485 | 1
x1 = 0.0921 | 1.08
x1 = 0.1704 | 1.198
x1 = 0.2242 | 1.288
x1 = 0.2579 | 1.333
x1 = 0.2736 | 1.364
x1 = 0.3237 | 1.437
x1 = 0.3887 | 1.52
x1 = 0.4494 | 1.59
x1 = 0.5 | 1.646
x1 = 0.5522 | 1.696
x1 = 0.6149 | 1.75
x1 = 0.6542 | 1.79
x1 = 0.7187 | 1.826
x1 = 0.7623 | 1.846
x1 = 0.8533 | 1.891
x1 = 0.8992 | 1.913
x1 = 0.9312 | 1.929

COCCOCCOCCO + ClC(Cl)=C(Cl)Cl
298.15 K, 101.33 kPa
Settings | viscosity [mPa·s]
x1 = 0.0078 | 0.862
x1 = 0.016 | 0.883
x1 = 0.0295 | 0.915
x1 = 0.047 | 0.956
x1 = 0.0598 | 0.989
x1 = 0.0696 | 1.016
x1 = 0.0802 | 1.046
x1 = 0.0924 | 1.081
x1 = 0.1201 | 1.162
x1 = 0.1568 | 1.28
x1 = 0.2009 | 1.432
x1 = 0.2413 | 1.592
x1 = 0.2894 | 1.795
x1 = 0.3457 | 2.047
x1 = 0.3797 | 2.209
x1 = 0.4041 | 2.334
x1 = 0.462 | 2.64
x1 = 0.4933 | 2.812
x1 = 0.5379 | 3.072
x1 = 0.5783 | 3.326
x1 = 0.6154 | 3.56
x1 = 0.6587 | 3.856
x1 = 0.7026 | 4.163
x1 = 0.7393 | 4.431
x1 = 0.787 | 4.797
x1 = 0.8264 | 5.117
x1 = 0.886 | 5.597
x1 = 0.9108 | 5.82
x1 = 0.9403 | 6.053
x1 = 0.9649 | 6.276
x2 = 0.0193 | 6.411

COCCOCCOCCOC + ClC(Cl)Cl
298.15 K, 101 kPa
Settings | viscosity [mPa·s]
x1 = 0.0083 | 0.569
x1 = 0.0278 | 0.622
x1 = 0.0552 | 0.702
x1 = 0.0851 | 0.795
x1 = 0.1347 | 0.962
x1 = 0.195 | 1.16
x1 = 0.241 | 1.295
x1 = 0.2903 | 1.425
x1 = 0.3545 | 1.559
x1 = 0.4174 | 1.678
x1 = 0.4686 | 1.717
x1 = 0.5236 | 1.766
x1 = 0.5853 | 1.809
x1 = 0.631 | 1.836
x1 = 0.708 | 1.868
x1 = 0.7445 | 1.893
x1 = 0.8071 | 1.901
x1 = 0.8627 | 1.918
x1 = 0.9174 | 1.934
x2 = 0.0147 | 1.949

COCCOCCOCCO + ClC=C(Cl)Cl
298.15 K, 101.33 kPa
Settings | viscosity [mPa·s]
x1 = 0.0056 | 0.538
x1 = 0.0133 | 0.554
x1 = 0.0235 | 0.574
x1 = 0.0377 | 0.603
x1 = 0.0554 | 0.645
x1 = 0.0751 | 0.694
x1 = 0.0865 | 0.725
x1 = 0.1057 | 0.778
x1 = 0.1359 | 0.869
x1 = 0.171 | 0.983
x1 = 0.2125 | 1.134
x1 = 0.2627 | 1.342
x1 = 0.286 | 1.451
x1 = 0.3201 | 1.615
x1 = 0.3511 | 1.784
x1 = 0.3864 | 1.974
x1 = 0.4202 | 2.172
x1 = 0.4548 | 2.382
x1 = 0.4947 | 2.633
x1 = 0.5322 | 2.875
x1 = 0.5817 | 3.21
x1 = 0.6349 | 3.596
x1 = 0.6824 | 3.953
x1 = 0.7308 | 4.32
x1 = 0.7791 | 4.716
x1 = 0.8178 | 5.027
x1 = 0.8689 | 5.459
x1 = 0.9106 | 5.813
x1 = 0.9455 | 6.128
x1 = 0.9667 | 6.324
x2 = 0.0177 | 6.438

COCCOCCOCCOC + ClCCl
298.15 K, 101 kPa
Settings | viscosity [mPa·s]
x1 = 0.0122 | 0.436
x1 = 0.0214 | 0.451
x1 = 0.043 | 0.496
x1 = 0.0736 | 0.575
x1 = 0.1008 | 0.621
x1 = 0.159 | 0.752
x1 = 0.2062 | 0.868
x1 = 0.2482 | 0.96
x1 = 0.3121 | 1.078
x1 = 0.3987 | 1.247
x1 = 0.4705 | 1.371
x1 = 0.5389 | 1.476
x1 = 0.5879 | 1.549
x1 = 0.6389 | 1.645
x1 = 0.6782 | 1.669
x1 = 0.7651 | 1.787
x1 = 0.803 | 1.823
x1 = 0.8785 | 1.897
x1 = 0.9474 | 1.92

CCCC(=O)OC + Clc1ccccc1
viscosity [mPa·s], 101.3 kPa
Settings | 308.15 K | 318.15 K
x1 = 0.0851 | 0.648 | 0.601
x1 = 0.1025 | 0.647 | 0.6
x1 = 0.2257 | 0.63 | 0.588
x1 = 0.3019 | 0.621 | 0.58
x1 = 0.4004 | 0.607 | 0.567
x1 = 0.5036 | 0.593 | 0.552
x1 = 0.5911 | 0.58 | 0.54
x1 = 0.6834 | 0.564 | 0.527
x1 = 0.8223 | 0.541 | 0.504
x1 = 0.8997 | 0.525 | 0.489
x1 = 0.9522 | 0.515 | 0.479

C1COCCOCCOCCOCCO1 + O
101 kPa
Settings | viscosity [mPa·s]
293.15 K, x1 = 0.0006204 | 1.026
293.15 K, x1 = 0.001402 | 1.056
293.15 K, x1 = 0.00196 | 1.077
293.15 K, x1 = 0.002451 | 1.096
293.15 K, x1 = 0.002972 | 1.116
293.15 K, x1 = 0.003463 | 1.135
298.15 K, x1 = 0.0008458 | 0.9177
298.15 K, x1 = 0.001528 | 0.94
298.15 K, x1 = 0.002266 | 0.9641
298.15 K, x1 = 0.002834 | 0.9822
298.15 K, x1 = 0.003303 | 0.9976
298.15 K, x1 = 0.003773 | 1.013
303.15 K, x1 = 0.0006643 | 0.8159
303.15 K, x1 = 0.001358 | 0.835
303.15 K, x1 = 0.002066 | 0.8548
303.15 K, x1 = 0.003143 | 0.8854
303.15 K, x1 = 0.00351 | 0.8952
303.15 K, x1 = 0.003848 | 0.9049
308.15 K, x1 = 0.0008516 | 0.7393
308.15 K, x1 = 0.001375 | 0.7519
308.15 K, x1 = 0.001712 | 0.7607
308.15 K, x1 = 0.00238 | 0.7764
308.15 K, x1 = 0.003105 | 0.7938
308.15 K, x1 = 0.003675 | 0.8069
